Measurements as given in a melting point compilation (Tetko et al.; mined from patent text by program, amines drawn as free bases though some values may be those of a salt).

Compound CC(C)S(=O)(=O)c1cnc2c(c1)nc(CC(C)(C)C)n2CC1(O)CCOCC1 has a melting point of 179 °C.
Nc1c(Cl)cccc1SSc1cccc(Cl)c1N showed a melting point of 87 to 88 °C.
In the case of CNC(=O)c1ccccc1Nc1nc(Nc2ccc3c(c2)CCN(CC(C)(C)F)CC3)ncc1Cl, the melting point is reported as 207 to 210 °C.
Compound CCc1nc(-c2ccccc2)[nH]c(=O)c1C has a melting point of 195 to 199 °C.
CCOC(=O)c1c(C(F)(F)F)nc(C(F)(F)F)c(C)c1OC(C)C showed a melting point of 53 to 55 °C.
In the case of CC(C)c1ccc(-n2c(CC(=O)O)c(C(=O)O)c3cc(Oc4cccc(C(F)(F)F)c4)ccc32)cc1, the melting point is reported as 185 to 190 °C.
Compound Cc1ccnc2c1C(=NNC(=N)N)CC(c1cc(Cl)sc1Cl)C2 (stereo not drawn) has a melting point of 250 to 251 °C.
Work on CCOC(=O)c1cnc2sc3c(n12)CCCCCC3 yielded a melting point of 79 to 81 °C.
Work on O=C(O)c1cn(-c2cnsn2)c2nc(Cl)c(F)cc2c1=O yielded a melting point of 222 to 223 °C.
In the case of CC(C)(NC(=O)C(CS)NC(=O)c1ccccc1)c1ccccc1 (stereo not drawn), the melting point is reported as 169 to 173 °C.
COC(=O)c1cccc(=O)n1C showed a melting point of 56 to 57 °C.
In the case of CCOC(=O)C(C)N1c2ccccc2Sc2ccc(C#N)cc21 (racemic), the melting point is reported as 117 to 118 °C.
Work on CCOC(=O)c1c(C)c(C(=O)C(C#N)C(=O)Nc2ccccc2)n(C)c1C (stereo not drawn) yielded a melting point of 164 to 166 °C.
Work on COc1cc(NC(=O)C(C#N)=CNc2ccc(OC)c(OCCCCl)c2)c(Cl)cc1Cl yielded a melting point of 185 to 192 °C.
CCOCCOc1ccc(CCNC(=O)/C=C/c2cccs2)cc1S(=O)(=O)NC(=O)NC gave a melting point of 65 °C.
CNS(=O)(=O)c1cc(C)oc1CC(=O)O gave a melting point of 112 to 113 °C.
Compound NC(=O)NN=C(CCl)COc1ccc(Cl)cn1 has a melting point of 115 to 117 °C.
In the case of COc1ccc(CN2C(=O)CCC2C(=O)O)cc1 (stereo not drawn), the melting point is reported as 103 to 104 °C.
Compound Cc1cccc2[nH]c(Nc3ccc(C(=O)O)cc3)nc12 has a melting point of 375 to 378 °C.
With CCCOc1ccc(S(=O)(=O)NCc2ccncc2)cc1-c1nc2cc3nc[nH]c3cc2c(=O)[nH]1 the melting point was 189 to 190 °C.
For O=C(Cn1c(-c2ccc(Cl)cc2)nc2cccnc21)N1CCC1, the melting point was 196 to 197 °C.
CCOC(=O)c1cnc2c(SCN3CCSCC3)cccn2c1=O showed a melting point of 128 to 130 °C.
In the case of COc1ccccc1-n1c(-c2cc(-c3ccncc3)c(N3CCOCC3)s2)nc2ccccc2c1=O, the melting point is reported as 204 to 205 °C.
In the case of CCOC(=O)C=C(C)C=CC=C(C)C=Cc1c(C)cc(C)c(Cl)c1C, the melting point is reported as 84 to 85 °C.
In the case of CC(=O)NC1=CC(C)(C)Oc2cc3nonc3cc21, the melting point is reported as 218 to 220 °C.
For CCC(Oc1cc(C)c(Cl)c(C)c1)C(=O)NCc1cccs1 (stereo not drawn), the melting point was 105 to 107 °C.
With CCCCc1nn(-c2cccc(NC(=O)CC)c2)c(=O)n1Cc1ccc(-c2ccccc2S(=O)(=O)NC(=O)c2ccccc2Cl)cc1 the melting point was 105 to 107 °C.
In the case of CCCCc1ccc2ncn(Cc3ccc(-c4ccccc4-c4nnnn4COC)cc3)c(=O)c2c1, the melting point is reported as 112 °C.
Cc1ccc(C=C2CCN(C(=O)c3nc4ccc(O)cc4[nH]3)CC2)cc1 showed a melting point of 82 °C.
In the case of O=C1CNCCN1c1cccc([N+](=O)[O-])c1, the melting point is reported as 137 to 139 °C.
In the case of CN(CCNC(=O)NCCCOc1cccc(CN2CCCCC2)c1)CCC(c1ccc(Cl)cc1)c1ccccn1 (stereo not drawn), the melting point is reported as 99 to 105 °C.
For Cc1ccccc1-c1ccc(C(=O)N2Cc3ccc(C(=O)NCCCCc4ccccc4)n3Cc3ccccc32)cc1C, the melting point was 129 to 131 °C.
Cc1cc(C)cc(Sc2cccc(N)c2C#N)c1 gave a melting point of 124 to 125 °C.
With CC(=Cc1ccccc1)C(C#N)=NOS(C)(=O)=O the melting point was 105 to 107 °C.
COc1ccc(C2(CCN3CCC(C(O)(c4ccccc4)c4ccccc4)CC3)CCN(C(=O)c3cc(OC)c(OC)c(OC)c3)C2)cc1OC (stereo not drawn) gave a melting point of 95 to 97 °C.
Work on CCOC(=O)c1cc2cccc(N(C)S(=O)(=O)c3ccccc3OC)c2n1COC yielded a melting point of 124 to 125 °C.
O=C(c1ccccc1)c1cc(Cl)ccc1N=C=S gave a melting point of 63 to 65 °C.
Work on O=C(Nc1ccc(F)cc1)C1=C(C(=O)Nc2cc(OC3CCCC3)c(Cl)cc2F)CCCC1 yielded a melting point of 209 to 210 °C.
In the case of O=C(NCc1ccc(Cl)cc1)c1cnc2ccc(OCCO)cc2c1O, the melting point is reported as 246 to 248 °C.
NC(CSSCCCN1C(=O)NCC1c1ccccc1)C(=O)O (stereo not drawn) gave a melting point of 172 to 178 °C.
For CNC(C(=O)NC(N)=O)C(=S)c1cccc2c(C(F)(F)F)c(OC)ccc12 (stereo not drawn), the melting point was 203 to 204 °C.
Compound O=C(c1cccnc1)N1CCC(c2ccc(F)cc2)=N1 has a melting point of 128 to 130 °C.
CC(NCC(O)CP(=O)(O)CC1CCCCC1)c1ccc(Cl)c(Cl)c1 (stereo not drawn) gave a melting point of 173 to 178 °C.
N#Cc1ccc(NC(=S)N2CCN(c3cnccn3)CC2)cc1 showed a melting point of 208 to 210 °C.
In the case of CN1C(=O)N(c2cc(Cl)cc(Cl)c2)C(=O)[C@]12CN(c1ccc(Cl)nn1)C[C@H]2c1ccc(C#N)cc1 (relative stereo), the melting point is reported as 125 °C.
In the case of CC(=O)OCC1OC(n2cc(Cc3ccc4occc4c3)c3c(F)cccc32)C(OC(C)=O)C(OC(C)=O)C1OC(C)=O (stereo not drawn), the melting point is reported as 184 to 185 °C.
COc1ccccc1NC(=O)N1CCC(=O)C(C(c2ccccc2)c2ccccc2)C1 (stereo not drawn) showed a melting point of 150 to 151 °C.
CCOc1ccc(-c2nc(-c3cc4c(c(C(=O)O)c3)OC(C)(C)C4)cs2)cc1OCC showed a melting point of 106 to 107 °C.
For COc1ccc(C=CC(=O)c2c(O)cc(OC)cc2OC)cc1, the melting point was 111 °C.
CCOC(=O)c1c(S)nc(-c2ccccc2)c([N+](=O)[O-])c1C(=O)OCC gave a melting point of 129 to 132 °C.
Work on Cc1c(OCC(F)(F)C(F)(F)F)ccnc1CSc1nc2ccccc2[nH]1 yielded a melting point of 145 to 146 °C.
With O=[N+]([O-])c1cccc(S(=O)(=O)Nc2nncs2)c1 the melting point was 189 to 192 °C.
In the case of O=C(O)CC(Br)C(Br)c1ccc(-c2ccccc2)cc1 (stereo not drawn), the melting point is reported as 200 to 203 °C.
Work on CN1c2ccccc2CN(C(=O)c2ccc(C3CCCCC3)cc2)c2ccccc21 yielded a melting point of 104 to 106 °C.
In the case of CCOC(=O)c1c(C)cc2cnc(-c3ccccc3C(F)(F)F)nc2c1C, the melting point is reported as 68 to 69 °C.
Work on CCCc1c(O)cc(O)c(C(=O)CCc2ccc(O)cc2)c1O yielded a melting point of 216 to 218 °C.
In the case of N[C@@H](Cc1ccccc1)c1nc2c(C(F)(F)F)cccc2c(O)c1C(=O)Nc1nccs1, the melting point is reported as 234 °C.
O=C(N[C@@H](Cc1ccccc1)C(=O)COC(=O)N1CCC[C@H]1C(=O)O)c1ccccc1 showed a melting point of 55 to 65 °C.
N#Cc1ccc(Nn2cnnc2)cc1-c1ccco1 showed a melting point of 217 to 218 °C.
For CC(c1ccccc1[N+](=O)[O-])S(N)(=O)=O (stereo not drawn), the melting point was 107 to 109 °C.
Cn1cc(C2=C(c3cc[nH]c3)C(=O)NC2=O)c2ccccc21 showed a melting point of 240 to 241 °C.
For CC(C(=O)O)c1ccc2c(c1)C(=O)c1ccc(Cl)cc1CS2 (stereo not drawn), the melting point was 137 to 138 °C.
Compound C=CCc1cc2c(cc1OCC=Cc1ccccc1)CCC(=O)N2CC=Cc1ccccc1 has a melting point of 88 to 89 °C.
In the case of O=C(NC(=O)c1c(Cl)cccc1Cl)Nc1ccc(C(F)(F)F)cc1, the melting point is reported as 200 °C.
In the case of Cc1nc2c([nH]1)C(=O)c1ccccc1C2=O, the melting point is reported as > 260 °C.
Nc1ncc2ncn([C@@H]3C[C@H](O)[C@@H](O)[C@H]3O)c2n1 (racemic) gave a melting point of 153 to 155 °C.
For O=C(O)Cc1ccc(OCCCCl)cc1, the melting point was 89 to 91 °C.
For C=CC(=O)N1CC(c2ccc(Cl)cc2)Sc2ccccc21 (stereo not drawn), the melting point was 122 to 124 °C.
With CC(=O)Nn1cc(C)n(C)c1=O the melting point was 199 to 201 °C.
With CC(=O)OCC(=O)C1(O)CCC2C3CCC4=CC(=O)C=CC4(C)C3C(O[Si](C)(C)C)CC21C (stereo not drawn) the melting point was 180 to 184 °C.
With O=C1c2ccccc2C(=O)N1CCc1cn(C2OCC(O)C(O)C2O)c(=O)[nH]c1=O (stereo not drawn) the melting point was 137 °C.
CCCCOC(=O)c1ccccc1-c1ccc(Cn2c(CCCC)nc(C(C)(C)O)c2C(=O)O)cc1 gave a melting point of 158 to 159 °C.
With COc1ccc(Cn2c(=O)[nH]c3cc([N+](=O)[O-])ccc3c2=O)cc1 the melting point was 244 to 246 °C.
With CSCc1cn(C)c2c(F)cccc2c1=O the melting point was 165 to 167 °C.
CCCOCCc1ccc(-c2ccc3c(c2)C=C(C(=O)Nc2ccc(CN(C)C4CCOCC4)cc2)CCS3(=O)=O)c(Cl)c1 showed a melting point of 150 to 152 °C.
Work on O=[N+]([O-])c1ccc(C#Cc2ccccc2)c(-c2cc([N+](=O)[O-])ccc2C#Cc2ccccc2)c1 yielded a melting point of 216 to 218 °C.
Compound CCc1scc(C(=O)OC)c1NC(=O)C(F)(F)F has a melting point of 55 to 56 °C.
In the case of COc1ccc(Cl)cc1C(=N)Nc1ccc(F)c(NC(=O)/C=C/c2ccccc2Cl)c1, the melting point is reported as 229 to 230 °C.
CC/C(=C(\c1ccc(I)cc1)c1ccc(OCCCCCBr)cc1)c1ccccc1 showed a melting point of 78 to 80 °C.
Nc1ccc2c(c1)C(=O)N(CCO)CCO2 gave a melting point of 138 °C.
With CCN(CCCc1c[nH]c2c(F)cc(F)cc12)C1COc2c(C(N)=O)ccc(F)c2C1 (stereo not drawn) the melting point was 125 °C.
Work on Cn1ccc(=O)c(O)c1C(O)c1ccccc1 (stereo not drawn) yielded a melting point of 210 to 213 °C.
COc1ccc(Cl)cc1C1=NCCO1 gave a melting point of 100 to 101 °C.
Compound O=Cc1cc2ccsc2s1 has a melting point of 43 to 45 °C.
CC(C)(C)OC(=O)N1CCC(NC(=O)c2ccc(-n3cccn3)cc2)C1 (stereo not drawn) gave a melting point of 263 to 264 °C.
COCCOC(=O)c1cc(-n2c(OC)nc(C(F)(F)C(F)(F)F)cc2=O)c(F)cc1Cl gave a melting point of 92 to 94 °C.
In the case of CCOc1nc(N)nc(OC(F)(F)F)n1, the melting point is reported as 69 to 71 °C.
With CCOc1ccc(C2=NN(c3ccc(S(=O)(=O)O)cc3)C(=O)[C@H]3CC=CC[C@@H]23)cc1OCC (relative stereo) the melting point was 65 to 69 °C.
In the case of CC(C)(C)OC(=O)Nc1ccc(C#Cc2ccc(F)cc2F)cc1N, the melting point is reported as 113 to 116 °C.
With COc1ccc(Nc2nccc(-c3ccc(Cl)nc3)n2)cn1 the melting point was 203 to 205 °C.
For N#Cc1cccc(-c2ccccn2)n1, the melting point was 136 to 137 °C.
For COc1cc(N)c(Cl)cc1C(=O)NCC1CCN(CCCCCC(=O)c2ccc(C)cc2C)CC1, the melting point was 106 to 110 °C.
In the case of CCCN(CCC)Cc1nnc(-c2ncn3c2[C@@H]2CCCN2C(=O)c2c(Cl)cccc2-3)o1, the melting point is reported as 158 to 160 °C.
For O=c1nc(-c2ccccc2)cnn1-c1cc(Cl)cc(Cl)c1, the melting point was 160 to 161 °C.
With CCOC(=O)c1cc(C#N)c(C)nc1Cl the melting point was 43 to 45 °C.
Compound CCC(=O)NN=C(Nc1ccc([N+](=O)[O-])cc1)c1ccc(OC)cc1 has a melting point of 200 °C.
Compound CCOC(=O)c1cn(-c2ccc([N+](=O)[O-])cc2)cn1 has a melting point of 198 to 200 °C.
With CCCCN=C(O)c1cc([N+](=O)[O-])cc(Sc2ccccc2C(=O)O)c1C(=O)O the melting point was 192 to 196 °C.
